Source: PubChem BioAssay AID1963422 (Molecular Pharmacology Branch, DTP, NCI, 2024)
Blank lines part the entries; values can stand above or below the compound they belong to.

System: 463943-066-T-J2-PDC complex spheroid growth
Test: Anticancer human tumor 463943-066-T-J2-PDC patient-derived colon adenocarcinoma cell line growth inhibition [Asc]
Details: for IC50: curve of first compound; for viability, T/C: stronger effect = lower value
Summary of the method: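 Tumor cells were grown as multicellular spheroids with stromal HUVEC and mesenchymal stem cells and treated singly or in combination. Concentrations fell in half-log steps from the clinical Cmax, or from 10 microM where none was known.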

[1] = second compound 0.00949 µM, first compound 0.0316 µM
[2] = second compound 0.00949 µM, first compound 0.1 µM
[3] = second compound 0.03 µM, first compound 0.0316 µM
[4] = second compound 0.03 µM, first compound 0.1 µM
[5] = second compound 0.0949 µM, first compound 0.0316 µM
[6] = second compound 0.0949 µM, first compound 0.1 µM
[7] = second compound 0.3 µM, first compound 0.0316 µM
[8] = second compound 0.3 µM, first compound 0.1 µM
[9] = second compound 0.949 µM, first compound 0.0316 µM
[10] = second compound 0.949 µM, first compound 0.1 µM
[11] = second compound 3 µM, first compound 0.0316 µM
[12] = second compound 3 µM, first compound 0.1 µM
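Further: compound exposure lasted 7 days.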
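Wherever viability, T/C is given: 100% = DMSO vehicle control wells.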

IC50 (second compound 0.00316 µM): > 10 µM | IC50 (second compound 0.01 µM): > 10 µM | IC50 (second compound 0.0316 µM): > 10 µM | IC50 (second compound 0.1 µM): > 10 µM | IC50 (second compound 0.316 µM): > 10 µM | IC50 (second compound 1 µM): > 10 µM
SMILES: C#Cc1c(F)ccc2cc(O)cc(-c3ncc4c(N5CC6CCC(C5)N6)nc(OCC56CCCN5CC(F)C6)nc4c3F)c12 (stereo unspecified) + CNC(C)C(=O)NC1CN(S(=O)(=O)c2cccc(S(=O)(=O)N3CCC4CCC(C(=O)NC(c5ccccc5)c5ccccc5)N4C(=O)C(NC(=O)C(C)NC)C3)c2)CCC2CCC(C(=O)NC(c3ccccc3)c3ccccc3)N2C1=O
viability, T/C (second compound 0.00316 µM, first compound 0.0316 µM): 105% | viability, T/C (second compound 0.00316 µM, first compound 0.1 µM): 103% | viability, T/C (second compound 0.00316 µM, first compound 0.316 µM): 94.3% | viability, T/C (second compound 0.00316 µM, first compound 1 µM): 123% | viability, T/C (second compound 0.00316 µM, first compound 3.16 µM): 94% | viability, T/C (second compound 0.00316 µM, first compound 10 µM): 99.5% | viability, T/C (second compound 0.01 µM, first compound 0.0316 µM): 101% | viability, T/C (second compound 0.01 µM, first compound 0.1 µM): 99.9% | viability, T/C (second compound 0.01 µM, first compound 0.316 µM): 97.4% | viability, T/C (second compound 0.01 µM, first compound 1 µM): 102% | viability, T/C (second compound 0.01 µM, first compound 3.16 µM): 99.3% | viability, T/C (second compound 0.01 µM, first compound 10 µM): 101% | viability, T/C (second compound 0.0316 µM, first compound 0.0316 µM): 102% | viability, T/C (second compound 0.0316 µM, first compound 0.1 µM): 101% | viability, T/C (second compound 0.0316 µM, first compound 0.316 µM): 94.3% | viability, T/C (second compound 0.0316 µM, first compound 1 µM): 103% | viability, T/C (second compound 0.0316 µM, first compound 3.16 µM): 100% | viability, T/C (second compound 0.0316 µM, first compound 10 µM): 91.3% | viability, T/C (second compound 0.1 µM, first compound 0.0316 µM): 109% | viability, T/C (second compound 0.1 µM, first compound 0.1 µM): 92% | viability, T/C (second compound 0.1 µM, first compound 0.316 µM): 98% | viability, T/C (second compound 0.1 µM, first compound 1 µM): 94.6% | viability, T/C (second compound 0.1 µM, first compound 3.16 µM): 101% | viability, T/C (second compound 0.1 µM, first compound 10 µM): 85.7% | viability, T/C (second compound 0.316 µM, first compound 0.0316 µM): 88% | viability, T/C (second compound 0.316 µM, first compound 0.1 µM): 94.2% | viability, T/C (second compound 0.316 µM, first compound 0.316 µM): 89.6% | viability, T/C (second compound 0.316 µM, first compound 1 µM): 93.3% | viability, T/C (second compound 0.316 µM, first compound 3.16 µM): 100% | viability, T/C (second compound 0.316 µM, first compound 10 µM): 81.8% | viability, T/C (second compound 1 µM, first compound 0.0316 µM): 90.7% | viability, T/C (second compound 1 µM, first compound 0.1 µM): 85.6% | viability, T/C (second compound 1 µM, first compound 0.316 µM): 80.8% | viability, T/C (second compound 1 µM, first compound 1 µM): 87.7% | viability, T/C (second compound 1 µM, first compound 3.16 µM): 85.6% | viability, T/C (second compound 1 µM, first compound 10 µM): 72%

IC50 (second compound 0.00949 µM): > 0.1 µM | IC50 (second compound 0.03 µM): > 0.1 µM | IC50 (second compound 0.0949 µM): > 0.1 µM | IC50 (second compound 0.3 µM): > 0.1 µM | IC50 (second compound 0.949 µM): > 0.1 µM | IC50 (second compound 3 µM): > 0.1 µM
SMILES: NC1CCC(NC2CC2c2ccccc2)CC1 (stereo unspecified) + CCN1C(C(=O)NC23CCC(C(=O)O)(CC2)CC3)C(c2cccc(Cl)c2F)C2(C(=O)Nc3cc(Cl)ccc32)C12CCCCC2
viability, T/C (second compound 0.00949 µM, first compound 0.000316 µM): 89.9% | viability, T/C (second compound 0.00949 µM, first compound 0.001 µM): 76.8% | viability, T/C (second compound 0.00949 µM, first compound 0.00316 µM): 87.3% | viability, T/C (second compound 0.00949 µM, first compound 0.01 µM): 91.6% | viability, T/C [1]: 87.1% | viability, T/C [2]: 89% | viability, T/C (second compound 0.03 µM, first compound 0.000316 µM): 88.8% | viability, T/C (second compound 0.03 µM, first compound 0.001 µM): 79.3% | viability, T/C (second compound 0.03 µM, first compound 0.00316 µM): 83.1% | viability, T/C (second compound 0.03 µM, first compound 0.01 µM): 82.5% | viability, T/C [3]: 86.2% | viability, T/C [4]: 75.3% | viability, T/C (second compound 0.0949 µM, first compound 0.000316 µM): 84.6% | viability, T/C (second compound 0.0949 µM, first compound 0.001 µM): 80.8% | viability, T/C (second compound 0.0949 µM, first compound 0.00316 µM): 77.1% | viability, T/C (second compound 0.0949 µM, first compound 0.01 µM): 82.8% | viability, T/C [5]: 82.4% | viability, T/C [6]: 75.4% | viability, T/C (second compound 0.3 µM, first compound 0.000316 µM): 78.2% | viability, T/C (second compound 0.3 µM, first compound 0.001 µM): 77.3% | viability, T/C (second compound 0.3 µM, first compound 0.00316 µM): 71.5% | viability, T/C (second compound 0.3 µM, first compound 0.01 µM): 79% | viability, T/C [7]: 74.7% | viability, T/C [8]: 71.9% | viability, T/C (second compound 0.949 µM, first compound 0.000316 µM): 67.7% | viability, T/C (second compound 0.949 µM, first compound 0.001 µM): 71.3% | viability, T/C (second compound 0.949 µM, first compound 0.00316 µM): 66.7% | viability, T/C (second compound 0.949 µM, first compound 0.01 µM): 67.2% | viability, T/C [9]: 71.5% | viability, T/C [10]: 65.8% | viability, T/C (second compound 3 µM, first compound 0.000316 µM): 69.4% | viability, T/C (second compound 3 µM, first compound 0.001 µM): 68% | viability, T/C (second compound 3 µM, first compound 0.00316 µM): 66.5% | viability, T/C (second compound 3 µM, first compound 0.01 µM): 65.8% | viability, T/C [11]: 71% | viability, T/C [12]: 64.3%

IC50 (second compound 0.00949 µM): > 10 µM | IC50 (second compound 0.03 µM): > 10 µM | IC50 (second compound 0.0949 µM): > 10 µM | IC50 (second compound 0.3 µM): > 10 µM | IC50 (second compound 0.949 µM): > 10 µM | IC50 (second compound 3 µM): > 10 µM
SMILES: O=C(c1cc(Cc2n[nH]c(=O)c3ccccc23)ccc1F)N1CCN(C(=O)C2CC2)CC1 + CCN1C(C(=O)NC23CCC(C(=O)O)(CC2)CC3)C(c2cccc(Cl)c2F)C2(C(=O)Nc3cc(Cl)ccc32)C12CCCCC2
viability, T/C [1]: 99.4% | viability, T/C [2]: 102% | viability, T/C (second compound 0.00949 µM, first compound 0.316 µM): 95.9% | viability, T/C (second compound 0.00949 µM, first compound 1 µM): 104% | viability, T/C (second compound 0.00949 µM, first compound 3.16 µM): 106% | viability, T/C (second compound 0.00949 µM, first compound 10 µM): 91.5% | viability, T/C [3]: 103% | viability, T/C [4]: 88.8% | viability, T/C (second compound 0.03 µM, first compound 0.316 µM): 94.6% | viability, T/C (second compound 0.03 µM, first compound 1 µM): 97.4% | viability, T/C (second compound 0.03 µM, first compound 3.16 µM): 96.9% | viability, T/C (second compound 0.03 µM, first compound 10 µM): 89.9% | viability, T/C [5]: 98.5% | viability, T/C [6]: 85.4% | viability, T/C (second compound 0.0949 µM, first compound 0.316 µM): 92.7% | viability, T/C (second compound 0.0949 µM, first compound 1 µM): 89.8% | viability, T/C (second compound 0.0949 µM, first compound 3.16 µM): 89.1% | viability, T/C (second compound 0.0949 µM, first compound 10 µM): 81.4% | viability, T/C [7]: 87.9% | viability, T/C [8]: 80.1% | viability, T/C (second compound 0.3 µM, first compound 0.316 µM): 83.4% | viability, T/C (second compound 0.3 µM, first compound 1 µM): 83.2% | viability, T/C (second compound 0.3 µM, first compound 3.16 µM): 76.4% | viability, T/C (second compound 0.3 µM, first compound 10 µM): 83.7% | viability, T/C [9]: 76.7% | viability, T/C [10]: 75.2% | viability, T/C (second compound 0.949 µM, first compound 0.316 µM): 74.3% | viability, T/C (second compound 0.949 µM, first compound 1 µM): 75.8% | viability, T/C (second compound 0.949 µM, first compound 3.16 µM): 75.5% | viability, T/C (second compound 0.949 µM, first compound 10 µM): 72% | viability, T/C [11]: 72.3% | viability, T/C [12]: 69.1% | viability, T/C (second compound 3 µM, first compound 0.316 µM): 70.9% | viability, T/C (second compound 3 µM, first compound 1 µM): 71.7% | viability, T/C (second compound 3 µM, first compound 3.16 µM): 70.6% | viability, T/C (second compound 3 µM, first compound 10 µM): 74.7%
